The source of these data is patent US20050261265A1, “MODULATING CELLULAR SENESCENCE BY AMPHIPHYSIN-1” (priority 2000, published 2005).

Data set [1] has as its system caveolin-1. Briefly: Immunostaining of caveolin-1 in old fibroblasts transfected with oligonucleotide. The class given is cell-based, human. The note with it: old fibroblasts PDL 64; for expression of caveolin-1 in cell (immunostaining): with a lapse of treatment time, FIG. 19. The method, then:
(§1) Old human fibroblasts (PDL 64) were placed onto 24 well-plate or dish containing DMEM without FBS and incubated in incubator (37° C., 5% CO2) for 12 hr. After incubation, 1-5 μg of 100 μM antisense oligonucleotides synthesized and Plus reagent (Gibco-BRL) were mixed with 500 μl of DMEM and subsequently reacted for 15 min. at room temperature, and the resulting mixture was well mixed with 500 μl of the mixture containing 12 μl of Lipofectamine (Gibco-BRL) and DMEM, followed by standing the mixture for 15 min. at room temperature in order to form liposome complex. The incubated cells were washed twice with DMEM (no serum) and treated with 1 ml of the liposome complex, followed by incubation for 3 hr at 37° C. To the transfected cells, 1-5 ml of DMEM containing 10% FBS was added and the incubation was subsequently carried out for 24 hr, after which the media was changed with DMEM containing 10% FBS. Following incubation for a given period, immunostaining and western blotting were carried out as follows:
The cells treated with antisense oligonucleotide were fixed with 0.5 ml of 4% paraformaldehyde for 20 min at room temperature and then permeabilized with 0.5 ml of 0.5% Triton X-100 in PBS for 10 min, followed by blocking with 2% BSA (in PBS). The cells were sequentially incubated with anti-caveolin-1 antibody (Transduction Laboratory) overnight at 4° C. and then rhodamine-conjugated secondary antibody (Santa Cruz) for 1 hr at room temperature. For the purpose of visualizing nucleus, DAPI (Molecular Probe) was also added. The observation was performed using confocal microscope (Biorad, #MRC1024).

Data set [2] concerns p-Erk-1/2. As to the kind of experiment: Immunostaining of p-Erk-1/2 translocation to nucleus. The class given is cell-based, human. The note with it: old cells; EGF; FIG. 22. The method, then:
To verify that Erk-1/2 kinase activated in Example XVIII is translocated into nucleus and regulate sequentially the expression of other genes, immunostaining was performed as follows: Young and old fibroblasts were treated with antisense oligonucleotide and EGF as Example XIII. The treated cells were sequentially incubated with anti-p-Erk (phosphorylated-Erk) antibody (New England Biotech) overnight at 4° C. and then FITC-conjugated secondary antibody (Santa Cruz) for 1 hr at room temperature. For the purpose of visualizing nucleus, DAPI (Molecular Probe) was also added. The image of p-Erk-1/2 localization was visualized using confocal microscope (Biorad, #MRC1024), which is found in FIGS. 21 and 22. In FIGS. 21 and 22, arrows indicate translocation of p-Erk-1/2 kinase into nucleus.

Data set [3] relates to Erk-1/2. As to the kind of experiment: Western blotting of Erk-1/2 activation upon EGF after oligonucleotide transfection. Format: cell-based, human. The note with it: old cells; 100 ng/ml EGF; FIG. 20. The method, then: Young cells (PDL less than 30), middle cells (PDL 35-45) and old cells (PDL more than 60) of Human fibroblasts or IMR-90 cells, respectively were stimulated with 100 ng/ml EGF (Gibco-BRL, human, recombinant). After stimulation, western blotting was performed as described in Example V. Monoclonal anti-phospho-Erk-1/2 antibody, polyclonal anti-Erk-1/2 antibody and polyclonal anti-EGFR antibody were purchased from Santa Cruz Biotechnology, Inc. As found in FIG. 13a, in both young and middle-aged cells, Erk-1/2 kinases were phosphorylated (activated) within 5 min, and the resulting activation was sustained for 15 min after EGF stimulation. However, the phosphorylation of Erk-1/2 kinase from old cells was not detected until 15 min had lapsed. The expression level of Erk kinase and EGFR was not changed by the increase of population doubling in Western blot (see FIG. 13b), despite the down-regulation of EGF signaling to Erk kinases.
The old and young fibroblasts were treated with antisense oligonucleotide as described in Example XVII. The EGF stimulation and western blotting were carried out as described in Example XI. FIG. 20 represents the results of this Example.

Data set [4] deals with caveolin-1. Briefly: Western blotting of caveolin-1 in cells treated with oligonucleotides. The class given is cell-based, human. The note with it: old fibroblasts PDL 64. The method, then: Analysis of caveolin expression, in young cells (PDL less than 30), middle cells (PDL 35-45) and old cells (PDL more than 60) of Human fibroblasts or IMR-90 cells, was performed by Western blotting as described in Example V. Monoclonal anti-caveolin-1 antibody, monoclonal anti-caveolin-2 antibody and monoclonal anti-caveolin-3 antibody were purchased from Transduction Laboratories.
as §1, with “follows: […]” for “follows:”

The test system of data set [5] is human fibroblasts. Briefly: Senescence-associated β-galactosidase activity staining. The class given is cell-based. The note with it: for β-galactosidase activity shown from (days after treatment), entry of cellular senescence: fibroblasts PDL 16, 400 μM. The method, then:
The fibroblasts subcultured in Exmaple I-1, PDL of which are 16, were placed in culture plate and were kept to arrest cell cycle to G1 phase in incubator (37° C., 5% CO2 and humidified) for a week. The cell cycle arrest was confirmed as follows: Following the fixation of the cells with cold ethanol, the cells were stained for 30 min. at room temperature using PI staining solution (containing 50 μg/ml of Rnase A and 50 μg/ml of propinium iodide in PBS). Thereafter, using FACS (fluorescence-activated cell sorter), the cell cycle was confirmed by observing DNA phenotype, i.e., 2n or 4n.
The fibroblasts arrested in G1 phase were treated with 400 μM H2O2 and then incubated for 3 hrs., followed by washing with 10 ml of PBS. Then, the cells were subcultured at a 1:4 ratio and under normal conditions for cell culure (37° C., 5% CO2 and humidified), cell culture was continuously performed. Following 7 days after the treatment, the cells were determined in terms of senescence using senescence-associated […] activity staining as described in Example III.
The fibroblasts subcultured in Exmaple I-1, PDL of which are 16, were placed in culture plate containing DMEM and were cultured in incubator (37° C., 5% CO2 and humidified) for 14 hrs. Thereafter, the fibroblasts were treated with 400 μM Hydroxyurea and then incubated continuously. The medium was renewed once per 3 days with the addition of fresh 400 μM Hydroxyurea. Following 14 days after the treatment, the cells were determined in terms of senescence using senescence-associated […] activity staining as described in Example III.
A senescence-associated […] activity staining (hereinafter referred to as “SA β-gal activity staining) was performed according to the method of Dimri et al. (Dimri G P et al., Proc. Natl. Acad. Sci., 92:9363(1995)): The semiconfluent fibroblasts were washed twice with 10 ml of PBS and fixed with 2% paraformaldehyde in PBS for 5 min. at room temperature. […]

Data set [6] relates to p16. Briefly: Western blotting of young cells treated with demethylating agent. The class given is cell-based, human. The note with it: young fibroblasts PDL 20; 1 μM; FIG. 23b. The method, then:
(§2) The induction of cellular senescence was verified by SA β-gal activity staining as Example III. To investigate the expression of related proteins, the treated cells were harvested in different days and western blotting was performed as previously described. In western blotting, anti-p53 antibody, anti-p16 antibody, anti-caveolin-1 antibody and anti-actin antibody were purchased from Santa Cruz Biotechnology, Inc.

Data set [7] has as its system caveolin-1. The data set is described as above. Format: cell-based, human. The settings on record: young fibroblasts PDL 20; 1 μM; FIG. 23b. The method, then: as §2
For data set [8], the system named is receptor-mediated endocytosis. Briefly: Internalization of rhodamine-conjugated transferrin in artificially induced senescent cells (confocal microscopy). Format: cell-based, human. The settings on record: 25 μg/ml rhodamine-conjugated transferrin, FIG. 4.

{FL} = fluorescein region

Consider “5′-atgtctgggggc-3′ (sense ATGTCTGGGGGC; all phosphorothioate, 5' {FL}, sugars by position and methylation of C not given here) [sense oligonucleotide, sense oligonucleotide for the same region of caveolin-1 mRNA, control]”, for which, in data set [1], the cell morphology result is on record as “did not show such cell-morphology alteration” and the “expression of caveolin-1 in cell (immunostaining)” value is recorded as “not changed”. Further, in data set [2], the p-Erk-1/2 in nucleus entry is “no p-Erk-1/2 in nucleus”. For the same molecule, in data set [3], the “Erk-1/2 activation by EGF” value is recorded as “no alteration in Erk-1/2 activation”.
With “5′-tttgcccccaga-3′ (antisense TTTGCCCCCAGA; all phosphorothioate, 5' {FL}, sugars by position and methylation of C not given here) [antisense oligonucleotide]”, in data set [1], the cell morphology result was “enlarged and spread morphology to smaller and spindle morphology”; the “expression of caveolin-1 in cell (immunostaining)” value is recorded as “dramatically decreased”. The p-Erk-1/2 in nucleus entry in data set [2] was “vice versa”. Further, in data set [4], the “caveolin-1 band (western blotting)” value is reported as “weaker band corresponding to caveolin-1”. The “Erk-1/2 activation by EGF” value in data set [3] was “highly increased”.
On to `Nc1ncn([C@H]2C[C@H](O)[C@@H](CO)O2)c(=O)n1` [5-aza-deoxycytidine], for which the “SA β-gal activity staining (induction of cellular senescence)” value in data set [5] (young fibroblasts PDL 20, 1 μM, treated for about 2 weeks, FIG. 23a) was “senescent cell-like phenomenon”. Moreover, the “expression of p16” value in data set [6] is “increased”. For the same molecule, in data set [7], the “expression of caveolin-1” value is reported as “increased”.
For the molecule `OO` [H2O2], the “β-galactosidase activity shown from (days after treatment), entry of cellular senescence” value in data set [5] was 10 days. Also, the “function of receptor-mediated endocytosis (internalization of fluorescent transferrin)” value in data set [8] is “reduced function of receptor-mediated endocytosis”.
In the same order, the values of `NC(=O)NO` [hydroxyurea, Hydroxyurea] are 14 to 20 days and “reduced function of receptor-mediated endocytosis”.
